Reference: paper PMC7460063, “Unique Polyhalogenated Peptides from the Marine Sponge Ircinia sp” (Marine Drugs, 2020)
Non-standard residues stand in square brackets, D forms with d. Residues, ends and D or L forms follow the SMILES beside them. *: point of attachment. X1 = Cn1c(Br)c(Br)c(Br)c1C(=O)*; NMeL = CN[C@@H](CC(C)C)C(=O)O

Experiments:
A-549 = test: Cytotoxic activity against lung tumor cell line A-549; format: cell-based; settings: A-549 (lung), human tumor cell line
HT-29 = test: Cytotoxic activity against colon tumor cell line HT-29; format: cell-based; settings: HT-29 (colon), human tumor cell line
MDA-MB-231 = test: Cytotoxic activity against breast tumor cell line MDA-MB-231; format: cell-based; settings: MDA-MB-231 (breast), human tumor cell line
PSN-1 = test: Cytotoxic activity against pancreas tumor cell line PSN-1; format: cell-based; settings: PSN-1 (pancreas), human tumor cell line
topoisomerase I = test: Topoisomerase I inhibition; format: biochemical
[1] = tested on: interaction between the programmed cell death protein PD-1 and its natural ligand PDL1; test: Cell-based assay of PD-1/PDL1 interaction; settings: for %Inhibition at 1 × 10^−5 M (PD-1): final readout dependent on the interaction between PD-1 and PDL1; for impairment of PD-1/PDL1 interaction: final readout dependent on the interaction between the two proteins
four cancer cell lines [2] = test: Cytotoxic activity, four cancer cell lines (summary); format: cell-based, human; settings: four cancer cell lines: A-549, HT-29, MDA-MB-231, PSN-1
four cancer cell lines [3] = settings: cited for comparison with 1 and 2; cited from earlier work
Experimental: In summary, two new peptides bearing unprecedented halogenated moieties, haloirciniamide A (1) and seribunamide A (2), were isolated from a marine sponge belonging to the Irnicia genus, which was selected for further studies. The sample was collected around the Thousand Islands (Indonesia) by the Pharmamar expedition team in collaboration with the Research Center for Oceanography, Indonesian Institute of Sciences (RCO-LIPI). The planar structures of the novel compounds were determined by a combination of extensive NMR and HPLC-MS experiments. The absolute configuration was achieved by Marfey’s ...

Compound | GI50 (A-549) [µM] | GI50 (HT-29) [µM] | GI50 (MDA-MB-231) [µM] | GI50 (PSN-1) [µM] | %Inhibition at 1 × 10^−5 M (Top-I) (topoisomerase I; 1 × 10^−5 M) [%] | inhibition of topoisomerase I (topoisomerase I; 1.0 × 10^−5 M) | %Inhibition at 1 × 10^−5 M (PD-1) [1] [%] | impairment of PD-1/PDL1 interaction [1] | cytotoxic activity (four cancer cell lines [2]) | cytotoxic activity (words, comparison compound cyclocinamide B) (four cancer cell lines [3]) | cytotoxic activity (words, comparison compound gunungamide A) (four cancer cell lines [3])
CN1C(=O)C[C@H](C(N)=O)NC(=O)[C@@H](O)CNC(=O)[C@H](CNC(=O)c2cc(Br)c(Br)[nH]2)NC(=O)[C@H](CN)NC(=O)C1Cc1cnc(Cl)[nH]1 (stereo partly drawn) [Compound 1, haloirciniamide A] | > 12 | > 12 | > 12 | > 12 | 3 | no inhibition of the enzyme | 0.3 | unable to impair the interaction | not observed | – | –
CC[C@H](C)[C@H](NC(=O)c1c(Br)c(Br)c(Br)n1C)C(=O)N(C)[C@@H](CC(C)C)C(=O)N1CCC[C@H]1C(=O)N[C@@H](CCC(N)=O)C(=O)O [Compound 2, seribunamide A] (X1-I[NMeL]PQ-OH) | > 12 | > 12 | > 12 | > 12 | – | – | −3.5 | unable to impair the interaction | not observed | – | –
cyclocinamide B | – | – | – | – | – | – | – | – | – | not observed | –
gunungamide A | – | – | – | – | – | – | – | – | – | – | not observed
